Results on one compound are retold here after ChEMBL document CHEMBL1122212, “Substance P” (1982).

Square brackets hold non-standard residues; d marks the D form. Peptide text beside a SMILES is read from it. pGlu = O=C1CC[C@@H](C(=O)O)N1

The species named for experiment [1] is Cavia porcellus. The experiment is described as follows: Potency of compound was determined for contraction of guinea pig vas deferens relative to substance P(=1). The experiment is classed as functional.
The species entered for experiment [2] is Rattus norvegicus. Kind of experiment: Potency of compound was determined in rat vas deferens relative to substance E. The experiment is classed as functional.
The target of experiment [3] is Substance-P receptor (Rattus norvegicus) (UniProt P14600). The experiment is described as follows: Potency for [3H]SP binding to Tachykinin receptor 1 in rat brain central nervous system (CNS). The experiment is classed as tissue-based.
Experiment [4] is filed under the species Rattus norvegicus. The experiment is described as follows: Potency of compound was determined in rat duodenum relative to substance E. The experiment is classed as functional.
For experiment [5], the species on record is Rattus norvegicus. Kind of experiment: Potency of compound was determined for contraction of rat bladder relative to substance P(=1). The experiment is classed as functional.
Another experiment concerns Cricetinae gen. sp. The experiment is described as follows: Potency of compound was determined in hamster bladder relative to substance E. The experiment is classed as functional.
For experiment [6], the species on record is Cavia porcellus. The experiment is described as follows: Potency of compound was determined for contraction of guinea pig ileum relative to substance P(=1). The experiment is classed as functional.

Substance-P receptor (Rattus norvegicus), sequence (P14600 whole entry): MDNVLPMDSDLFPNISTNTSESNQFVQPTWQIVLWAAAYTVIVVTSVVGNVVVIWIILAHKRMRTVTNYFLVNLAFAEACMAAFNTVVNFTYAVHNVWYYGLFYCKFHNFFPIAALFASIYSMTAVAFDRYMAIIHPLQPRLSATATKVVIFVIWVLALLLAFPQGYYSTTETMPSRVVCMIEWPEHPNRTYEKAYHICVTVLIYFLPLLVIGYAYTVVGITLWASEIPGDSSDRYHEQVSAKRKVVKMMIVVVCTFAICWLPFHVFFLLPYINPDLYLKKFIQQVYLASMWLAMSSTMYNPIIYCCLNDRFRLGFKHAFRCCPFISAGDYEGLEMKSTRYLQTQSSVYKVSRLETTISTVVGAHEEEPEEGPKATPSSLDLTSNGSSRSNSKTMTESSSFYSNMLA

For the compound `CC[C@H](C)[C@H](NC(=O)[C@H](Cc1ccccc1)NC(=O)[C@H](C)NC(=O)[C@H](CC(=O)O)NC(=O)[C@H](CCCCN)NC(=O)[C@H](CO)NC(=O)[C@@H]1CCCN1C(=O)[C@@H]1CCC(=O)N1)C(=O)NCC(=O)N[C@@H](CC(C)C)C(=O)N[C@@H](CCSC)C(N)=O` [ELEDOISIN] ([pGlu]PSKDAFIGLM-NH2), the Potency in the experiment listed under Cavia porcellus [1] was 0.6; in the experiment filed under Rattus norvegicus [2] it was 86; in experiment [3], 0.3; in the experiment filed under Rattus norvegicus [4] it was 13.9; in the experiment filed under Rattus norvegicus [5], 0.96; with Cricetinae gen. sp., 105. This compound came in with a Potency in the experiment filed under Cavia porcellus [6] of 0.9.
